Results from US9586949B2, “Aza-heteroaryl compounds as PI3K-gamma inhibitors” (Incyte Corporation, priority 2015, dated 2017).
Structures can show the parent of a compound that is named as a salt.

Legend:
[1] = target: PI3Kδ (p110δ/p85α) Recombinant Human Protein (Homo sapiens (Human), UniProt O00329); test: PI3Kδ Scintillation Proximity Assay; assay type: biochemical; details: 20 μM PIP2, 2 μM ATP, 3.4 nM PI3Kδ, 120 min; read-out: PI3K-delta SPA IC50
Excerpt: [γ-^33P]ATP (10 mCi/mL) and Wheat Germ Agglutinin (WGA) YSi SPA Scintillation Beads was purchased from Perkin-Elmer (Waltham, Mass.). Lipid kinase substrate, D-myo-Phosphatidylinositol 4,5-bisphosphate (PtdIns(4,5)P2)D (+)-sn-1,2-di-O-octanoylglyceryl, 3-O-phospho linked (PIP2), CAS 204858-53-7, was purchased from Echelon Biosciences (Salt Lake City, Utah). PI3Kδ (p110δ/p85α) Recombinant Human Protein was purchased from Eurofins (St Charles, Mo.). ATP, MgCl2, DTT, EDTA, MOPS and CHAPS were purchased from Sigma-Aldrich (St. Louis, Mo.).
(§1) The kinase reaction was conducted in polystyrene 384-well Greiner Bio-one white plate from Thermo Fisher Scientific in a final volume of 25 μL. Inhibitors were first diluted serially in DMSO and added to the plate wells before the addition of other reaction components. The final concentration of DMSO in the assay was 2%. The PI3Kδ assay was carried out at room temperature in 20 mM MOPS, pH 6.7, 10 mM MgCl2, 5 mM DTT and CHAPS 0.03%. Reactions were initiated by the addition of ATP, the final reaction mixture consisted of 20 μM PIP2, 2 μM ATP, 0.5 μCi [γ-^33P] ATP, 3.4 nM PI3Kδ. Reactions were incubated for 120 min and terminated by the addition of 40 μL SPA beads suspended in quench buffer: 163 mM potassium phosphate pH 7.8, 20% glycerol, 25 mM EDTA. The final concentration of SPA beads is 1.0 mg/mL. After the plate sealing, plates were shaken overnight at room temperature and centrifuged at 1500 rpm for 10 min, the radioactivity of the product was determined by scintillation counting on Topcount (Perkin-Elmer). IC50 determination was performed by fitting the curve of percent of the solvent control activity versus the log of the inhibitor concentration using the GraphPad Prism 6.0 software.

[2] = target: PI3Kγ (p110γ) Recombinant Human Protein (Homo sapiens (Human), UniProt P48736); test: PI3K-γ Scintillation Proximity Assay; assay type: biochemical; details: 20 μM PIP2, 2 μM ATP, 13 nM PI3Kγ, 120 min; read-out: PI3K-gamma SPA IC50
PI3Kγ (p110γ) Recombinant Human Protein, sequence (P48736 whole entry): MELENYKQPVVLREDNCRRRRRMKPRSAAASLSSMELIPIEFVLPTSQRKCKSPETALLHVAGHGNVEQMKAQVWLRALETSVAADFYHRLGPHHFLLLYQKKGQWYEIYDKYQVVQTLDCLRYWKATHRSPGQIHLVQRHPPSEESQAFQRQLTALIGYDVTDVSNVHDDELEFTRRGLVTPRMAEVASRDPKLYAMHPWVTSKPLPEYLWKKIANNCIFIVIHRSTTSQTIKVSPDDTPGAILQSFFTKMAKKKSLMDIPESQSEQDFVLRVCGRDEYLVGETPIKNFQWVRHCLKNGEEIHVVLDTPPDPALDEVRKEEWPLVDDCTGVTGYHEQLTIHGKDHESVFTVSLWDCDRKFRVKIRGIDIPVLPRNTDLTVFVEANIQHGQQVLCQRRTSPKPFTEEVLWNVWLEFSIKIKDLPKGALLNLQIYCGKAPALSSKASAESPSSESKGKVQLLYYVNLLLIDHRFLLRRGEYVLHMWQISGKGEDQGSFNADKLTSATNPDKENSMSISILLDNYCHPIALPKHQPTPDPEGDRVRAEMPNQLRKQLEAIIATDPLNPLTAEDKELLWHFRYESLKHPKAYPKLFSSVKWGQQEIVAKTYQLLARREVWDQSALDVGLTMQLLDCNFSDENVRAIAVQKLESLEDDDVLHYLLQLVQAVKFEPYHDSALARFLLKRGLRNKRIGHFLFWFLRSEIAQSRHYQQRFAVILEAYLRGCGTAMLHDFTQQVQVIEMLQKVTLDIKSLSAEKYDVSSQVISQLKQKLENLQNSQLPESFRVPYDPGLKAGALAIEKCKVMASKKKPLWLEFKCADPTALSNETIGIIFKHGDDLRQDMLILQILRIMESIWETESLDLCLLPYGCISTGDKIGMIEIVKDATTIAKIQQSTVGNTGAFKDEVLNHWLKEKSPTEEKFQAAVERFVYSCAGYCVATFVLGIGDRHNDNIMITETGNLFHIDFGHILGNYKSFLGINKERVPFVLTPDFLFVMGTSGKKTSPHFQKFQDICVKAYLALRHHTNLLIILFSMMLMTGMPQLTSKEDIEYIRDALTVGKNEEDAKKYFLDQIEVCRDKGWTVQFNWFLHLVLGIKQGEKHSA
Description: [γ-^33P]ATP (10 mCi/mL) and Wheat Germ Agglutinin (WGA) YSi SPA Scintillation Beads was purchased from Perkin-Elmer (Waltham, Mass.). […] PI3Kγ (p110γ) Recombinant Human Protein was purchased from Life technology (Grand Island, N.Y.). ATP, MgCl2, DTT, EDTA, MOPS and CHAPS were purchased from Sigma-Aldrich (St. Louis, Mo.).
as §1, with “PI3Kγ” for “PI3Kδ”, “ATP, 3.4 nM PI3Kδ. Reactions were incubated for 120 min and terminated by the addition of 40 μL SPA beads suspended in quench buffer: 163 mM potassium phosphate pH 7.8, 20% glycerol, 25 mM EDTA.” left out

PI3Kδ (p110δ/p85α) Recombinant Human Protein, sequence (O00329 whole entry): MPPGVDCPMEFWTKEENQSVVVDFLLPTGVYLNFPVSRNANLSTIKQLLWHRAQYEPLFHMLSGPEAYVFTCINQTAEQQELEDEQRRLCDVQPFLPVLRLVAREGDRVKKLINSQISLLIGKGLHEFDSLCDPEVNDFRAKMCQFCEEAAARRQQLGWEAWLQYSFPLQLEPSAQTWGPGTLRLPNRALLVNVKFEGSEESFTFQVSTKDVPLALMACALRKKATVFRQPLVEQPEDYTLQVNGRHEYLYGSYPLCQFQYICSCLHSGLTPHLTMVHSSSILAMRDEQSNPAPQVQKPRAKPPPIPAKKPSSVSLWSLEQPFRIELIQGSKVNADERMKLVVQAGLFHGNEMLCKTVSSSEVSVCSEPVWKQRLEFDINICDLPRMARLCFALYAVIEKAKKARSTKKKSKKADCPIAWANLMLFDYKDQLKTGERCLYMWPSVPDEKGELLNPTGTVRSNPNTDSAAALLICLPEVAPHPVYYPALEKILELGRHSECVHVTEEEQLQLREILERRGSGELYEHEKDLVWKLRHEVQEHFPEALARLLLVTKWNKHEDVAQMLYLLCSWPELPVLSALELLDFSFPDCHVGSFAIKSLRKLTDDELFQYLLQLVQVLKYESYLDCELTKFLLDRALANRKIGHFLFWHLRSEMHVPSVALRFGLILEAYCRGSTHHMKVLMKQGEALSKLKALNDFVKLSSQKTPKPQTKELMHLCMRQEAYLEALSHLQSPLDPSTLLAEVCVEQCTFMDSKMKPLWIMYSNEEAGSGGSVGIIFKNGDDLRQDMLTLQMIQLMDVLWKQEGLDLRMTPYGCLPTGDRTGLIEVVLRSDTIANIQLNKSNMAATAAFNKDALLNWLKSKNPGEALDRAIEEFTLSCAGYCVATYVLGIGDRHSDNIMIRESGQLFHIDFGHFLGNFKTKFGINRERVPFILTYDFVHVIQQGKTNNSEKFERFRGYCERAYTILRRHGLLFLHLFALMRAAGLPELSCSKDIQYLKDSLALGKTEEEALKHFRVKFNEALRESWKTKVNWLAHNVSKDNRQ
PI3Kδ (p110δ/p85α) Recombinant Human Protein, sequence (P27986 whole entry partner): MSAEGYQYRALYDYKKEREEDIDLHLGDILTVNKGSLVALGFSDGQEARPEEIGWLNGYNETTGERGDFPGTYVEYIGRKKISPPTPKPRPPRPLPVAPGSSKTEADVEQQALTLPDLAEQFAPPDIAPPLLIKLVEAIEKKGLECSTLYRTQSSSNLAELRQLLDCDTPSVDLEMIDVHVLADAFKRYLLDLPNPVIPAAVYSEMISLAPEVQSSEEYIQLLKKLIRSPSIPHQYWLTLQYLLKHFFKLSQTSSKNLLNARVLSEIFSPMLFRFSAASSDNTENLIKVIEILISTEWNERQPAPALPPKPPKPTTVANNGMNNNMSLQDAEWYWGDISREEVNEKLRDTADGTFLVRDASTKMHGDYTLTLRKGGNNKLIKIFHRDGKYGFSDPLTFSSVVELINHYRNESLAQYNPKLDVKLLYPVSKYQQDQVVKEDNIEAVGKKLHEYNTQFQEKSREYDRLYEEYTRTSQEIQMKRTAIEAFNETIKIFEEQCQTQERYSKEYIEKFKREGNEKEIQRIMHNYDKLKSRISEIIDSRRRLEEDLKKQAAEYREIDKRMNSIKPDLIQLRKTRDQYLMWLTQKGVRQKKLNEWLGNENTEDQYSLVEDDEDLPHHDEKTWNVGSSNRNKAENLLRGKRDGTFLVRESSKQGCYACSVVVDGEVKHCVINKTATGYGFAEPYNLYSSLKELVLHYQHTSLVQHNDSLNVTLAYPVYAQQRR

IC50 [1] | IC50 [2] | SMILES
< 1000 nM | < 250 nM | O=S(=O)(c1cncc(-c2ccc3nc(-c4nc5ccccc5[nH]4)oc3c2)c1)N1CCC(O)C1 (centres unmarked) [Example 58, 1-({5-[2-(1H-Benzimidazol-2-yl)-1,3-benzoxazol-6-yl]pyridin-3-yl}sulfonyl)pyrrolidin-3-ol bis(trifluoroacetate)]
< 5000 nM | < 250 nM | CC(C)S(=O)(=O)Nc1cncc(-c2ccc3nc(-c4nc5ccccc5[nH]4)oc3c2)c1 [Example 24, N-(5-(2-(1H-Benzo[d]imidazol-2-yl)benzo[d]oxazol-6-yl)pyridin-3-yl)propane-2-sulfonamide]
≥ 5000 nM | < 250 nM | N#Cc1cncc(-c2ccc3nc(-c4nc5ccccc5[nH]4)oc3c2)c1 [Example 35, 5-(2-(1H-Benzo[d]imidazol-2-yl)benzo[d]oxazol-6-yl)nicotinonitrile]
< 5000 nM | < 250 nM | COc1cncc(-c2ccc3nc(-c4nc5cc(C)ccc5[nH]4)oc3c2)c1 [Example 11, 6-(5-Methoxypyridin-3-yl)-2-(5-methyl-1H-benzo[d]imidazol-2-yl)benzo[d]oxazole]
< 1000 nM | < 250 nM | O=S(=O)(Nc1cncc(-c2ccc3nc(-c4nc5ccccc5[nH]4)oc3c2)c1)N1CCCCC1 [Example 20, N-(5-(2-(1H-Benzo[d]imidazol-2-yl)benzo[d]oxazol-6-yl)pyridin-3-yl)piperidine-1-sulfonamide]
≥ 5000 nM | < 250 nM | COc1cncc(-c2ccc3nc(-c4nc5c(C)cccc5[nH]4)oc3c2)c1 [Example 12, 6-(5-Methoxypyridin-3-yl)-2-(4-methyl-1H-benzo[d]imidazol-2-yl)benzo[d]oxazole]
< 250 nM | < 250 nM | CCS(=O)(=O)Nc1cc(-c2ccc3nc(-c4nc5ccccc5[nH]4)oc3c2)cnc1OC [Example 79, N-(5-(2-(1H-Benzo [d]imidazol-2-yl)benzo[d]oxazol-6-yl)-2-methoxypyridin-3-yl)ethanesulfonamide bis(trifluoroacetate)]
≥ 5000 nM | < 250 nM | CCS(=O)(=O)Nc1cc(-c2ccc3nc(-c4nc5ccccc5[nH]4)oc3c2)cnc1Cl [Example 26, N-(5-(2-(1H-Benzo[d]imidazol-2-yl)benzo[d]oxazol-6-yl)-2-chloropyridin-3-yl)ethanesulfonamide]
< 5000 nM | < 250 nM | c1ccc(Cn2cc(-c3ccc4nc(-c5nc6ccccc6[nH]5)oc4c3)cn2)cc1 [Example 48, 2-(1H-Benzimidazol-2-yl)-6-(1-benzyl-1H-pyrazol-4-yl)-1,3-benzoxazole]
≥ 5000 nM | < 5000 nM | COc1cncc(-c2ccc3nc(-c4cnc(C5CCOC5)[nH]4)oc3c2)c1 (centres unmarked) [Example 43, 6-(5-Methoxy-pyridin-3-yl)-2-(2-(tetrahydro-furan-3-yl)-1H-imidazol-5-yl)benzo[d] oxazole]
< 250 nM | < 250 nM | O=S(=O)(Nc1cncc(-c2ccc3nc(-c4nc5ccccc5[nH]4)oc3c2)c1)c1ccc(F)cc1 [Example 17, N-(5-(2-(1H-Benzo[d]imidazol-2-yl)benzo[d]oxazol-6-yl)pyridin-3-yl)-4-fluorobenzenesulfonamide]
< 1000 nM | < 250 nM | CCS(=O)(=O)Nc1cncc(-c2ccc3nc(-c4ncc[nH]4)oc3c2)c1 [Example 40, N-(5-(2-(1H-Imidazol-2-yl)benzo[d]oxazol-6-yl)pyridin-3-yl)ethanesulf-onamide]
≥ 5000 nM | < 250 nM | COc1cncc(-c2ccc3nc(-c4cnc(-c5ccccc5)[nH]4)oc3c2)c1 [Example 44, 6-(5-Methoxy-pyridin-3-yl)-2-(2-phenyl-1H-imidazol-5-yl)benzo[d] oxazole]
< 250 nM | < 250 nM | CCS(=O)(=O)Nc1cc(-c2ccc3nc(-c4nc5c([nH]4)CCCC5)oc3c2)cnc1OC [Example 66, N-(2-Methoxy-5-(2-(4,5,6,7-tetrahydro-1H-benzo[d]imidazol-2-yl)benzo[d]oxazol-6-yl)pyridin-3-yl)ethanesulfonamide]
< 250 nM | < 250 nM | O=S(=O)(Nc1cc(-c2ccc3nc(-c4nc5ccccc5[nH]4)oc3c2)cnc1Cl)c1ccc(F)cc1 [Example 29, N-(5-(2-(1H-Benzo[d]imidazol-2-yl)benzo[d]oxazol-6-yl)-2-chloropyridin-3-yl)-4-fluorobenzenesulfonamide]
< 1000 nM | < 250 nM | CN(C)S(=O)(=O)c1cncc(-c2ccc3nc(-c4nc5ccccc5[nH]4)oc3c2)c1 [Example 37, 5-[2-(1H-benzimidazol-2-yl)-1,3-benzoxazol-6-yl]-N,N-dimethylpyridine-3-sulfonamide]
≥ 5000 nM | < 5000 nM | Brc1ccc2nc(-c3nc4ccccc4[nH]3)oc2c1 [Example 13, 2-(1H-Benzo[d]imidazol-2-yl)-6-bromobenzo[d]oxazole]
< 250 nM | < 250 nM | CCCc1nc(-c2nc3ccc(-c4cncc(NS(=O)(=O)CC)c4)cc3o2)[nH]c1C [Example 64, N-(5-(2-(5-Methyl-4-propyl-1H-imidazol-2-yl)benzo[d]oxazol-6-yl)pyridin-3-yl)ethanesulfonamide bis(trifluoroacetate)]
< 5000 nM | < 1000 nM | O=C(O)Cc1cncc(-c2ccc3nc(-c4nc5ccccc5[nH]4)oc3c2)c1 [Example 71, 2-(5-(2-(1H-Benzo [d]imidazol-2-yl)benzo[d]oxazol-6-yl)pyridin-3-yl)acetic acid]
< 5000 nM | < 250 nM | Oc1cncc(-c2ccc3nc(-c4nc5ccccc5[nH]4)oc3c2)c1 [Example 14, 5-(2-(1H-Benzo[d]imidazol-2-yl)benzo[d]oxazol-6-yl)pyridin-3-ol]

SMILES | IC50 [1] | IC50 [2]
O=S(=O)(CC(F)(F)F)Nc1cc(-c2ccc3nc(-c4nc5ccccc5[nH]4)oc3c2)cnc1F [Example 75, N-(5-(2-(1H-Benzo [d]imidazol-2-yl)benzo[d]oxazol-6-yl)-2-fluoropyridin-3-yl)-2,2,2-trifluoro-ethanesulfonamide bis(trifluoroacetate)] | < 250 nM | < 250 nM
COc1cncc(-c2ccc3nc(-c4nc5ccccc5[nH]4)oc3c2)c1 [Example 4, 2-(1H-Benzo[d]imidazol-2-yl)-6-(5-methoxypyridin-3-yl)benzo[d]oxazole trifluoroacetate] | < 5000 nM | < 250 nM
OC(c1cncc(-c2ccc3nc(-c4nc5ccccc5[nH]4)oc3c2)c1)C(F)(F)F (centres unmarked) [Example 74, 1-(5-(2-(1H-Benzo [d]imidazol-2-yl)benzo [d]oxazol-6-yl)pyridin-3-yl)-2,2,2-trifluoroethanol bis(trifluoroacetate)] | < 250 nM | < 250 nM
CCS(=O)(=O)Nc1cncc(-c2ccc3nc(-c4nc(C)c(C)[nH]4)oc3c2)c1 [Example 63, N-(5-(2-(4,5-Dimethyl-1H-imidazol-2-yl)benzo[d]oxazol-6-yl)pyridin-3-yl)ethanesulfonamide bis(trifluoroacetate)] | < 1000 nM | < 250 nM
CN1CCN(S(=O)(=O)Nc2cncc(-c3ccc4nc(-c5nc6ccccc6[nH]5)oc4c3)c2)CC1 [Example 31, N-(5-(2-(1H-Benzo[d]imidazol-2-yl)benzo[d]oxazol-6-yl)pyridin-3-yl)-4-methylpiperazine-1-sulfonamide] | < 250 nM | < 250 nM
